The text below walks through data of ChEMBL document CHEMBL1142443, “Design and synthesis of reboxetine analogs morpholine derivatives as selective norepinephrine reuptake inhibitors” (Bioorg Med Chem Lett, 2008).

Structures are written as SMILES.

The target in assay [1] is Sodium-dependent noradrenaline transporter (Homo sapiens) (UniProt P23975). The assay is described as follows: Binding affinity at NET.
In assay [2] the target is Sodium-dependent serotonin transporter (Homo sapiens) (UniProt P31645). The assay is described as follows: Binding affinity at SERT.
Chain of Sodium-dependent serotonin transporter (Homo sapiens) (P31645 whole entry, looked up): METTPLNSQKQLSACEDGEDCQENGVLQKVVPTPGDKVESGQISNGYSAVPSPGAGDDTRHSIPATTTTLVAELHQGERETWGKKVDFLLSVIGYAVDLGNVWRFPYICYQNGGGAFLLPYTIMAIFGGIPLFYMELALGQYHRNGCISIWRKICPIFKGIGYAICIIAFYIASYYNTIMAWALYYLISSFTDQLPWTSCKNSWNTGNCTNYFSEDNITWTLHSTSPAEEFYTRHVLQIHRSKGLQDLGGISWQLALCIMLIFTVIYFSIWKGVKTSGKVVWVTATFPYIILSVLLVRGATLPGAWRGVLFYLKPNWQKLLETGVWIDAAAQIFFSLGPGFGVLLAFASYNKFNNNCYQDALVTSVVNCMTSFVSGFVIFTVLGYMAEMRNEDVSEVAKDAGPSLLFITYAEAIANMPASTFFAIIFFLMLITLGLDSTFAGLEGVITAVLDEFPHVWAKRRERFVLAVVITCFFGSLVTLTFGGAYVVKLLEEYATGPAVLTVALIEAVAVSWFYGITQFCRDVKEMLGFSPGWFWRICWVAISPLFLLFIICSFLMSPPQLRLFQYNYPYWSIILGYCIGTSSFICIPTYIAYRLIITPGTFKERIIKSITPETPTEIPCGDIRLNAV

Chain of Sodium-dependent noradrenaline transporter (Homo sapiens) (P23975 whole entry): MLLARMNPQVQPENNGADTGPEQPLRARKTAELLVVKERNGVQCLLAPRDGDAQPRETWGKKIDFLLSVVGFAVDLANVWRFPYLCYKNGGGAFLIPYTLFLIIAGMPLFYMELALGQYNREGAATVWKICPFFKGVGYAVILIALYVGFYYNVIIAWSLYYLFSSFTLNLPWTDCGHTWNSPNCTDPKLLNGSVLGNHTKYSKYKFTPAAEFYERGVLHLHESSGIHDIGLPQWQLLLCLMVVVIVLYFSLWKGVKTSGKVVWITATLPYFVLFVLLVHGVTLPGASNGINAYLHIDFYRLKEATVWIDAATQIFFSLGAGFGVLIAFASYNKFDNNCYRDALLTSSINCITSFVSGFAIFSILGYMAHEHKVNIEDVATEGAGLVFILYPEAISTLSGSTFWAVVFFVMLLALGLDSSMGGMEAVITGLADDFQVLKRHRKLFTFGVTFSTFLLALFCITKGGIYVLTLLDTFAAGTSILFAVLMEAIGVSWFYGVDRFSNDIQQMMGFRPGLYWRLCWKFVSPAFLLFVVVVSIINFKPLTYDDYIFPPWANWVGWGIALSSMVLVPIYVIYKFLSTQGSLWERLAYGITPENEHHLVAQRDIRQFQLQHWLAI

`Fc1cccc(F)c1O[C@@H](C1=CCCC1)[C@@H]1CNCCO1`: the Activity was 20 nM in assay [1] and 3700 nM in assay [2].
For `Fc1ccccc1O[C@@H](c1ccccc1)[C@@H]1CNCCO1` the same measures were 7 nM and 6390 nM.
Consider `Fc1ccc(O[C@@H](c2ccccc2)[C@@H]2CNCCO2)c(F)c1`, for which the Activity came to 16 nM in assay [1] and 617 nM in assay [2].
For `Brc1ccccc1O[C@@H](c1ccccc1)[C@H]1CNCCO1` the same measures were 17 nM and 105 nM.
With `c1ccc([C@H](Oc2ccccc2C2CC2)[C@@H]2CNCCO2)cc1`, the results for the Activity in assay [1] and in assay [2] were 2 nM and 482 nM, respectively.
For `Fc1cccc(F)c1O[C@H](C1=CCCC1)[C@@H]1CNCCO1` the same measures were 2570 nM and 2530 nM.
For `CCOc1ccccc1O[C@@H](c1ccccn1)[C@@H]1CNCCO1` the same measures were 7 nM and 6910 nM.
For `N#Cc1ccccc1O[C@@H](c1ccccc1)[C@@H]1CNCCO1` the same measures were 18 nM and greater than 10000 nM.
In the case of `Cc1coc([C@H](Oc2c(F)cccc2F)[C@@H]2CNCCO2)n1` (stereo in doubt; form 1), the Activity is 18 nM in assay [1] and greater than 4500 nM in assay [2].
For `CCOc1ccccc1O[C@@H](c1ncccc1C)[C@@H]1CNCCO1` the same measures were 27 nM and 3680 nM.
As to `Cc1coc([C@H](Oc2c(F)cccc2F)[C@@H]2CNCCO2)n1` (stereo in doubt; form 2), the Activity in assay [1] was 19 nM; in assay [2] it was greater than 10000 nM.
For `Cc1ccc(C(C)C)c(O[C@@H](c2ccccn2)[C@@H]2CNCCO2)c1` the same measures were 457 nM and greater than 8400 nM.
For `c1ccc([C@H](Oc2ccccc2C2CC2)[C@H]2CNCCO2)cc1`, in that order: 35 nM and 75 nM.
For `Fc1cccc(F)c1O[C@@H](c1nccs1)[C@@H]1CNCCO1`, in that order: 19 nM and greater than 10000 nM.
Turning to `CCOc1cccc(F)c1O[C@@H](c1ccccc1)[C@@H]1CNCCO1`, the Activity in assay [1] was found to be 4 nM; in assay [2] it was 2570 nM.
For `Fc1cccc(F)c1O[C@@H](c1ncco1)[C@@H]1CNCCO1` the same measures were 9 nM and greater than 10000 nM.
For `Fc1cccc(F)c1O[C@@H](c1cccc2c1OCC2)[C@@H]1CNCCO1`, in that order: 13 nM and 445 nM.
For `Fc1cccc(F)c1O[C@@H](c1ccccn1)[C@@H]1CNCCO1`, in that order: 6 nM and 8980 nM.
As to `CS(=O)(=O)c1ccccc1O[C@@H](c1ccccc1)[C@@H]1CNCCO1`, the Activity in assay [1] is 1360 nM; in assay [2] it was greater than 10000 nM.
For `Fc1ccc(O[C@@H](c2ccccc2)[C@@H]2CNCCO2)cc1`, in that order: 21 nM and 1620 nM.
For `Cc1coc([C@@H](Oc2c(F)cccc2F)[C@@H]2CNCCO2)n1` the same measures were 6940 nM and greater than 10000 nM.
For `CCOc1ccccc1O[C@@H](c1cccc(OC)n1)[C@@H]1CNCCO1`, in that order: 28 nM and 676 nM.
Regarding `CCOc1ccccc1O[C@@H](c1cccnc1)[C@@H]1CNCCO1`, the Activity is 114 nM in assay [1] and greater than 10000 nM in assay [2].
For `Fc1cccc(OC(c2ccccc2)C2CNCCO2)c1` (stereo not drawn) the same measures were 11 nM and 13 nM.
For `Fc1cccc(F)c1O[C@@H](Cc1ccccc1)[C@@H]1CNCCO1` the same measures were 66 nM and 912 nM.
For `Fc1cccc(F)c1O[C@@H](c1ccccc1)[C@@H]1CNCCO1` the same measures were 7 nM and 1210 nM.
For `COc1cccc(F)c1O[C@@H](c1ccccc1)[C@@H]1CNCCO1`, the Activity in assay [1] was 2 nM; in assay [2] it was greater than 3500 nM.
For `Brc1ccccc1O[C@@H](c1ccccc1)[C@@H]1CNCCO1`, in that order: 3 nM and 477 nM.
For `CCOc1ccccc1O[C@@H](c1ccc(CC)cn1)[C@@H]1CNCCO1`, in that order: 49 nM and 8210 nM.
